The values below come from PMC7846798, “Population pharmacokinetic modeling and clinical application of vancomycin in Chinese patients hospitalized in intensive care units” (Scientific Reports, 2021).

For data set [1] the following is noted: cited from earlier work.
Description: We reasonably fitted the plots of concentrations versus time with one-compartment models for most serum samples (n = 837) collected during the trough period (156 samples were collected during the approach peak period).
A short description of data set [2]: Population pharmacokinetic analysis of vancomycin (nonlinear mixed-effects modeling, Kinetica, one-compartment model).
Protocol: Data collected from patients’ medical records included age, total body weight, Sex, creatinine level, drug combination, and burn and continuous renal replacement therapy status (Burn-S, CRRT-S).
A total of 837 trough concentration (Ctrough) blood samples were collected 0.5 h before the next dose (after CRRT treatment for CRRT treatment patients), and 156 samples were collected at approach peak concentration (1 h after the peak concentration), both at the steady state (after the 6th dose) for most patients. All the samples (3–5 ml) were placed in 10 ml tubes containing coagulant and then centrifuged at 3000 rpm for 5 min. The supernatant serum was stored at − 80 °C for further testing.
The multilevel calibration was 0.4–100.0 μg/ml with calibration line slope consistently > 0.999. The RSD of intra-day and inter-day assays were less than 7%, and the recovery rate was 95.5–103.2%. Serum creatinine was detected by the creatine oxidase method with a biochemistry analyzer (Beckmann CX5).
As most of the trough concentrations of vancomycin was collected from sparse data at steady state, we fit the data with a one-compartment model to retrieve the pharmacokinetic parameters (CL and V).The covariate models and interindividual variability were expressed as following equation: βi=Ziβ+ηj, where βj denote as the parameter for the jth subject; Zj is amatrix depending on the covariates Zj. When no covariates are included, β is the (p*1) vector of the mean parameters; ηj is the interindividual variability that is assumed normal distribution with mean 0 and covariance matrix C (p*p).
A short description of data set [3]: Vancomycin serum concentrations (trough and approach peak) by HPLC. The note with it: n = 374 ICU patients. It counts as in vivo, human. The protocol: Ctrough means trough concentration that of blood samples collected 0.5 h before the next dose; Cappro peak means approach peak concentration that of the blood samples collected 1 h after completion of drug infusion.

Where [4] appears, read: Christine, 102 patients, unstable renal function.
[5] abbreviates: used as initial estimate, Chinese adult patients, ref Ji et al. [6].
Setting [6] is: values reported by other studies in non-ICU patients.
Where [7] appears, read: basic model (no covariates), Chinese ICU adult patients, population mean (RSE%).

Entries after “also recorded” stand apart in the source; their conditions may differ. Where two headings read alike, the source gives them in different places. Marks after values point to notes of the source that are not given here.

For the molecule `CN[C@H](CC(C)C)C(=O)N[C@H]1C(=O)N[C@@H](CC(N)=O)C(=O)N[C@H]2C(=O)N[C@H]3C(=O)N[C@H](C(=O)N[C@H](C(=O)O)c4cc(O)cc(O)c4-c4cc3ccc4O)[C@H](O)c3ccc(c(Cl)c3)Oc3cc2cc(c3O[C@@H]2O[C@H](CO)[C@@H](O)[C@H](O)[C@H]2O[C@H]2C[C@](C)(N)[C@H](O)[C@H](C)O2)Oc2ccc(cc2Cl)[C@H]1O` [vancomycin], the “Final model of CL” value was “CL(L·h^−1) = 2.97*(1 + 0.0205*(CLCr − CLCrMedian))” in data set [1] (setting [4]); “CL(L·h^−1) = 0.034*CLCr(ml·min^−1) + 0.015* TBW” in data set [1] (Llopis, 30 ICU patients); “CL(ml·min^−1·kg^−1) = 0.67*CLCr (ml·min^−1 ·kg^−1) + AGE^−0.24” in data set [1] (Natalia, 191 ICU patients); “CL(L·h^−1) = 0.0487*CLCr(ml·min^−1),” in data set [1] (Yasuhara, 190 adult Japanese, if CLCr < 85). Further, the V in data set [1] (setting [4]) was 1.24 L/kg; in data set [1] (ICU patients with Cr > 88.4 μmol/l), 148.19 L; in data set [1] (ICU patients with Cr value below 88.4 μmol/l), 59.86 L; in data set [1] (setting [6]), 31.24 to 91.76 L. In data set [1] (Llopis, 30 ICU patients), the “Final model of Vc (central compartment volume)” value is “Vc (L) = 0.414* TBW”. Besides, the “Final model of Vp (peripheral compartment volume)” value in data set [1] (Llopis, 30 ICU patients) was “Vp (L) = 1.32*TBW”. Moreover, the “Final model of V” value in data set [1] (Natalia, 191 ICU patients) is “V (L·kg^−1) = 0.82*2.49^A, A = 0 or 1 if Cr ≤ 88.4 or Cr > 88.4 μmol/L”. In addition, the CL in data set [1] (Yasuhara, 190 adult Japanese, if CLCr > 85) is 3.51 L/h; in data set [1] (setting [6]), 2.89 to 5.93 L/h. Besides, the “initial pharmacokinetic parameter CL” value in data set [1] (setting [5]) is on record as 2.83 L/h. The “initial pharmacokinetic parameter V” value in data set [1] (setting [5]) is 52.14 L. For the same molecule, the “CL (RSE%)” value in data set [2] (setting [7]) is reported as 2.63 (25.72) L/h; in data set [2] (final population model, Chinese ICU adult patients, one-compartment, EM algorithm, Kinetica 4.4.1, 294 patients for model building, serum HPLC, population mean), 3.16 (56.01) L/h. The “V (RSE%)” value in data set [2] (setting [7]) is 55.32 (27.31) L. Also, the “Final covariate equation of V” value in data set [2] (final model, Cr μmol/L, Age y, TBW kg) is listed as “V = 46.47 − 0.04*Cr − 0.07*Age + 0.16* TBW”. In data set [2] (final model, DA dopamine (1 not used, 2 used), Cr μmol/L, Burn-S (1 burn > 50%, 2 < 50%), TBW kg, CRRT-S (1 CRRT, 2 not)), the “Final covariate equation of CL” value was “CL = 0.78 + 0.036*DA − 0.007*Cr − 0.43*Burn-S + 0.067*TBW + 0.41*CRRT-S; also recorded: CL =0.78 + 0.036*DA − 0.007*Cr -0.43* Burn-S + 0.067*TBW + 0.41* CRRT-S”. Further, the “Ctrough (trough concentration)” value in data set [3] (blood samples collected 0.5 h before the next dose, steady state (after the 6th dose), regimens 0.5 g qd to 1 g q12h) was 16.3 ± 12.4. Moreover, in data set [3] (blood samples collected 1 h after completion of drug infusion, steady state), the “Cappro peak (approach peak concentration)” value came out at 36.0 ± 19.4.
